Data set [1] is described as follows: Release study in solution: electric field triggered release from the conductive hydrogel on a platinum electrode in PBS. It is filed as physicochemical. As for the experimental part:
The triggered release capabilities of this system were firstly investigated in solution. In phosphate buffered saline (PBS, pH 7.2), a voltage of −0.5 V was applied between two platinum electrodes separated by a distance of 1 cm. The anode was coated with 100 mg of the hydrogel containing 0.25 wt % fluorescein-encapsulated PPy nanoparticles with a thickness around 0.1 cm. The resistivity of the swelled hydrogel and the PBS buffer was measured to be 5400 Ω·cm and 64 Ω·cm, respectively. Then, the electric field across the hydrogel was calculated to be approximately −4.5 V/cm. The electrical stimulus was applied for 10 seconds, which was repeated every five minutes, followed by measurements of the concentration of free fluorescein in the solution. […] For each stimulus, ˜20 ng of fluorescein was released. The voltage between the two electrodes was then set at −1.5 V (corresponding to an electric field across the hydrogel of −13.6 V/cm). […] The higher amount observed during the first stimulus may result from higher drug loading within the nanoparticles. Our interest in the practicability of this triggered release led us to perform a long-term release study over seven days. With the voltage between the two electrodes at −1.0 V (corresponding to an electric field across the hydrogel of −9.0 V/cm), the pulsed electric stimulus was applied to the conductive hydrogels for 20 s, once every 24 hr, followed by concentration measurements of free fluorescein in solution. […] In the case of daunorubicin, an electric field across the hydrogel of 4.5 V/cm (the set voltage was 0.5 V) was applied for 10 seconds every 5 minutes.
By applying voltage until no obvious drug release could be detected, the loading percentage of fluorescein and daunorubicin in PPy nanoparticles was calculated to be around 3.6 wt % and 3.2 wt %. […] Only with an electric stimulus can drugs be released on command. This represents an important advantage of our delivery system over conventional sustained release of drugs from hydrogel.
The platinum anode was firstly coated with the PLGA-PEG-PLGA polymer solution (100 mg of polymer) containing 0.25 wt % fluorescein (or daunorubicin)-encapsulated PPy nanoparticles, followed by solidification of the gel at room temperature. The PPy nanoparticles in the solidified gel was calculated to be 1 wt %. The coated platinum anode was then immersed in phosphate buffered saline (PBS, pH 7.2) together with a counter platinum electrode with a separated distance of 1 cm. For the release study in solution, specific voltages were applied between the two electrodes, followed by measurements of the concentration of released molecules by fluorescent assays.

The procedure of data set [2]:
D-luciferin-encapsulated polypyrrole nanoparticles were synthesized the by an emulsion polymerization which could control the sizes of the nanoparticles. Luciferin served as a model molecule was incorporated in the polymer nanoparticle. […] At 4° C., 0.05 wt % of polypyrrole nanoparticles were dispersed in the water solution containing 15 wt % of poly[(D,L-lactic acid)-co-(glycolic acid)]-b-poly(ethylene oxide)-b-poly[(D,L-lactic acid)-co-(glycolic acid)] (PLGA-PEG-PLGA).
An electrical stimulus of −2.0 V/cm was applied for 10 seconds on the platinum electrodes in every 5 minutes, followed by measuring the concentration of luciferin in the solution.

For the compound `COc1cccc2c1C(=O)c1c(O)c3c(c(O)c1C2=O)C[C@@](O)(C(C)=O)C[C@@H]3O[C@H]1C[C@H](N)[C@H](O)[C@H](C)O1` [daunorubicin], the “loading percentage in PPy nanoparticles” value in data set [1] (calculated by applying voltage until no obvious drug release could be detected) was around 3.2 wt %. Further, in data set [1] (daunorubicin-encapsulated PPy nanoparticles in hydrogel, PBS pH 7.2, 0.5 V (4.5 V/cm across hydrogel), 10 seconds every 5 minutes), the “amount of daunorubicin released upon each stimulus” value is given as around 25 ng. Also, the “release from PPy nanoparticles in hydrogel without applying voltage” value in data set [1] (drug encapsulated in PPy nanoparticles in hydrogel, no electric field (control)) is on record as “no obvious release”. Moreover, in data set [1] (drug in PLGA-PEG-PLGA hydrogel, not encapsulated in PPy nanoparticles, no voltage), the “sustained release from hydrogel without encapsulation in PPy nanoparticles” value is “most of the drugs in hydrogel were released in 4 days”.

On to `O=C(O)[C@H]1CSC(c2nc3ccc(O)cc3s2)=N1` [luciferin, D-luciferin], for which the “release of luciferin upon electric stimulus” value in data set [2] (D-luciferin-encapsulated polypyrrole nanoparticles in PLGA-PEG-PLGA hydrogel, -2.0 V/cm, 10 seconds every 5 minutes) is given as “released by applying the electric stimulus”. In addition, in data set [2] (D-luciferin-encapsulated polypyrrole nanoparticles in hydrogel, control without voltage), the “release of luciferin without applying voltage” value is reported as “no release”.

Source of the values: patent publication US9713702B2, “Methods of electric field induced delivery of compounds, compositions used in delivery, and systems of delivery” (The Board of Trustee of the Leland Stanford Junior …, priority 2011, dated 2017).
